# In ChEMBL document CHEMBL1821680, “Current status and research strategies in tuberculosis drug development” (2011):
# Test system: Mycobacterium tuberculosis
# Experiment: Antituberculosis activity against Mycobacterium tuberculosis H37Rv
# Type: functional
Structure (SMILES),IC90,MIC
O=C(Nc1ccc(F)c(Cl)c1)C12CC3CC(CC(C3)C1)C2,< 0.1 µg/mL,
COC(=O)COc1ccc(NC(=O)COc2ccc(C)cc2C)cc1,< 0.1 µg/mL,
Cc1cc([N+](=O)[O-])ccc1NC(=O)c1ccc(-c2ccccc2)cc1,< 0.1 µg/mL,
CC(C)(C)c1ccc(C(=O)Nc2nc3ccccc3[nH]2)cc1,< 0.1 µg/mL,
CSc1ncc(C(=O)Nc2cccc(C(F)(F)F)c2)cn1,< 0.1 µg/mL,
O=C(Nc1nc(-c2ccccc2)c(-c2ccccc2)o1)c1ccc(F)cc1,< 0.1 µg/mL,
Cc1c(Cl)cccc1NC(=O)OC(C)(OC1CCCCC1)C(=O)O (stereo not given),< 0.1 µg/mL,
CC(C)(C)c1cc(Cl)c(O)c(NC(=S)NC(=O)c2ccc3ccccc3c2)c1,< 0.1 µg/mL,
O=c1c2ccccc2nc(/C=C/c2ccc([N+](=O)[O-])o2)n1CCCO,< 0.1 µg/mL,
O=S1(=O)C=C(Sc2nc3ccccc3s2)c2ccccc21,< 0.1 µg/mL,
Cc1sc(N)nc1C(=O)O,,0.06 µg/mL
Cc1cccnc1Nc1nc(-c2ccccn2)cs1,< 0.1 µg/mL,
C[C@H]1COC2(CCN(c3nc(=O)c4cc(C(F)(F)F)cc([N+](=O)[O-])c4s3)CC2)O1 [BTZ-043],,0.001 µg/mL
Cc1ccc2oc(-c3cc(NC(=O)Cc4ccccc4)ccc3Cl)nc2c1,< 0.1 µg/mL,
CC1(CNC(=O)Nc2ccc(C(F)(F)F)cc2)CC2CCC1C2 (stereo not given),< 0.1 µg/mL,
COc1ccc(CCNC(=O)CCc2ncc(C(C)(C)C)s2)cc1,< 0.1 µg/mL,
Cc1ccc(C(=O)Nc2ccc([N+](=O)[O-])cc2C)cc1I,< 0.1 µg/mL,
COC(=O)c1nc(N)sc1Cc1ccccc1,,0.06 µg/mL
FC(F)(F)c1ccccc1Nc1nc(-c2ccccn2)cs1,< 0.1 µg/mL,
CSc1ncnc2c1ncn2CC(=O)Nc1ccc(C)c(C)c1,< 0.1 µg/mL,
Clc1ccc(Nc2nc(-c3ccccn3)cs2)nc1,< 0.1 µg/mL,
C[C@@H]1COC2(CCN(c3nc(=O)c4cc(C(F)(F)F)cc([N+](=O)[O-])c4s3)CC2)O1,,0.001 µg/mL
O=C(CC12CC3CC(CC(C3)C1)C2)Nc1ccc2ccccc2c1,< 0.1 µg/mL,
Cc1cccc(Nc2nc(-c3ccccn3)cs2)n1,< 0.1 µg/mL,
O=C(Nc1ccc(F)c(Cl)c1)c1ccc([N+](=O)[O-])o1,< 0.1 µg/mL,
